According to patent US20140066362A1, “METHOD FOR TREATING INFECTIONS BY TARGETING MICROBIAL H2S-PRODUCING ENZYMES” (NEW YORK UNIVERSITY, priority 2011, published 2014):
Read-outs that look alike come from different tables or passages of the source.

Key:
[1] = tested on: CBS/CSE; format: cell-based, B. anthracis, S. aureus, P. aeruginosa; settings: chemical inhibition of CSE (PAG) or CBS (AOAA), 18 hours culture
[2] = tested on: E. faecalis ATCC29212; test: MIC of antibiotics with or without PAG/AOAA; format: cell-based; settings: for MIC: Enterococcus faecalis
Description: Bacterial cultures were prepared at initial inoculums of ˜5×10^5 CFU/ml, and aliquots of 190 μl per well were dispensed. Ten μl of the indicated antibiotic solutions were added to each well. The starting concentration for each antibiotic solution was 2×MIC, with serial ½ dilutions. Two sets of dilutions were prepared, and 0.1 mM AOAA was added to one set. The plates were kept at 37° C. and 85% humidity for 20 hours.
(§1) E. faecalis (ATCC 29212) cultures were prepared at initial inoculums of ˜5×10^5 CFU/ml in Mueller-Hinton II Broth (cation-adjusted). Aliquots of 190 μl were dispensed to each well of a fresh set of plates, and 10 μl of an antibiotic solution (levofloxacin, meropenem, gentamicin, piperacillin, linezolid, cefepime, daptomycin, vancomycin, or chloramphemicol) were transferred to the corresponding wells in each bacterial plate (FIG. 13). For each antibiotic, the starting concentration was 2×MIC (minimum inhibitory concentration) with serial ½ dilutions. Two sets of dilutions were prepared, and to one of them 0.1 mM AOAA was added. The resulting plates were kept at 37° C. and 85% humidity for 20 hours. All nine antibiotics tested were potentiated by AOAA, with respective MICs dropped from 8-fold to 32-fold (FIG. 13).
(§2) Minimum inhibitory concentration (MIC) determination was conducted as described in Example 7, above. To assess antibiotic potentiation by AOAA and PAG, MIC was determined for nine antibiotics (levofloxacin, meropenem, gentamicin, piperacillin, linezolid, cefepime, daptomycin, vancomycin, and chloramphemicol) and four bacterial strains (E. faecium (A2373), E. faecalis ([…]), S. pneumoniae (ATCC 49619), and P. aeruginosa (PAO1)) in the presence of antibiotic alone, 1 mM PAG, 0.1 mM AOAA, or 0.5 mM PAG+0.05 mM AOAA. The smaller the MIC value, the stronger the effect of antibiotic potentiation.

[3] = tested on: E. faecium A2373; test: MIC of antibiotics with or without PAG/AOAA; format: cell-based; settings: for MIC: Enterococcus faecium
Description: as §1, §2

[4] = tested on: S. pneumoniae ATCC49619; test: MIC of antibiotics with or without PAG/AOAA; format: cell-based; settings: for MIC: Streptococcus pneumoniae
Description: as §2

[5] = tested on: P. aeruginosa PAO1; test: MIC of antibiotics with or without PAG/AOAA; format: cell-based; settings: for MIC: Pseudomonas aeruginosa
Description: as §2

[6] = tested on: E. coli ΔsseA (3MST-deficient) strain; format: cell-based; settings: Table 1; relative values of growth inhibition (negative numbers), ΔsseA vs wt E. coli
[7] = in the presence of 0.5 mM PAG + 0.05 mM AOAA
[8] = ATCC29212, antibiotic alone, read-out: Minimum inhibitory concentration
[9] = A2373, antibiotic alone, read-out: Minimum inhibitory concentration
[10] = ATCC49619, antibiotic alone, read-out: Minimum inhibitory concentration
[11] = PAO1, antibiotic alone, read-out: Minimum inhibitory concentration

Molecule | Minimum inhibitory concentration ([2]; in the presence of 0.1 mM AOAA) | Minimum inhibitory concentration [2, 7] | Minimum inhibitory concentration ([2]; in the presence of 1 mM PAG) | Minimum inhibitory concentration ([3]; in the presence of 0.1 mM AOAA) | Minimum inhibitory concentration [3, 7] | Minimum inhibitory concentration ([3]; in the presence of 1 mM PAG) | Minimum inhibitory concentration ([4]; in the presence of 0.1 mM AOAA) | Minimum inhibitory concentration [4, 7] | Minimum inhibitory concentration ([4]; in the presence of 1 mM PAG) | Minimum inhibitory concentration ([5]; in the presence of 0.1 mM AOAA) | Minimum inhibitory concentration [5, 7] | Minimum inhibitory concentration ([5]; in the presence of 1 mM PAG) | ΔsseA inhibition of growth [6] | further results
C#CCC(N)C(=O)O (racemic) [PAG, D,L-propargylglycine] |  |  |  |  |  |  |  |  |  |  |  |  |  | Effect on H2S production (PbS staining) [1]: greatly decreased or eliminated PbS staining
CO/N=C(\C(=O)N[C@@H]1C(=O)N2C(C(=O)[O-])=C(C[N+]3(C)CCCC3)CS[C@H]12)c1csc(N)n1 [Cetepine, cefepime] | 2 µg/mL | 8 µg/mL | 32 µg/mL | >64 µg/mL | >64 µg/mL | >64 µg/mL | 0.125 µg/mL | 0.125 µg/mL | 0.125 µg/mL | 2 µg/mL | 1 µg/mL | 2 µg/mL |  | Minimum inhibitory concentration ([2]; antibiotic alone): 32 µg/mL; Minimum inhibitory concentration ([3]; antibiotic alone): >64 µg/mL; Minimum inhibitory concentration ([4]; antibiotic alone): 0.125 µg/mL; Minimum inhibitory concentration ([5]; antibiotic alone): 2 µg/mL
O=C(N[C@H](CO)[C@H](O)c1ccc([N+](=O)[O-])cc1)C(Cl)Cl [Chloramphenicol] | 0.5 µg/mL | 8 µg/mL | 8 µg/mL | 2 µg/mL | 8 µg/mL | 8 µg/mL | 4 µg/mL | 4 µg/mL | 4 µg/mL | 64 µg/mL | 64 µg/mL | 64 µg/mL | −136 | MIC [2, 8]: 8 µg/mL; MIC [3, 9]: 8 µg/mL; MIC [4, 10]: 8 µg/mL; MIC [5, 11]: 64 µg/mL
CCCCCCCCCC(=O)N[C@@H](Cc1c[nH]c2ccccc12)C(=O)N[C@H](CC(N)=O)C(=O)N[C@@H](CC(=O)O)C(=O)N[C@@H]1C(=O)NCC(=O)N[C@@H](CCCN)C(=O)N[C@@H](CC(=O)O)C(=O)N[C@H](C)C(=O)N[C@@H](CC(=O)O)C(=O)NCC(=O)N[C@H](CO)C(=O)N[C@@H]([C@H](C)CC(=O)O)C(=O)N[C@@H](CC(=O)c2ccccc2N)C(=O)O[C@@H]1C [Daptomycin, daptomycin] | ≦0.06 μg/ml | 1 µg/mL | 2 µg/mL | ≦1 μg/ml | 4 µg/mL | 2 µg/mL | 0.063 µg/mL | 0.125 µg/mL | 0.125 µg/mL | >64 µg/mL | >64 µg/mL | >64 µg/mL |  | MIC [2, 8]: 2 µg/mL; MIC [3, 9]: 4 µg/mL; MIC [4, 10]: 0.125 µg/mL; MIC [5, 11]: > 64 µg/mL
C[C@H]1COc2c(N3CCN(C)CC3)c(F)cc3c(=O)c(C(=O)O)cn1c23 [Levoflaxacin, levofloxacin] | 0.125 µg/mL | 0.5 µg/mL | 1 µg/mL | 2 µg/mL | 2 µg/mL | 2 µg/mL | 0.5 µg/mL | 0.5 µg/mL | 1 µg/mL | 0.5 µg/mL | 0.5 µg/mL | 0.5 µg/mL |  | MIC [2, 8]: 1 µg/mL; MIC [3, 9]: 2 µg/mL; MIC [4, 10]: 2 µg/mL; MIC [5, 11]: 0.5 µg/mL
CC(=O)NC[C@H]1CN(c2ccc(N3CCOCC3)c(F)c2)C(=O)O1 [Linezold, linezolid] | 0.25 µg/mL | 2 µg/mL | 4 µg/mL | 2 µg/mL | 4 µg/mL | 4 µg/mL | 0.5 µg/mL | 1 µg/mL | 2 µg/mL | >64 µg/mL | >64 µg/mL | >64 µg/mL |  | MIC [2, 8]: 4 µg/mL; MIC [3, 9]: 4 µg/mL; MIC [4, 10]: 2 µg/mL; MIC [5, 11]: > 64 µg/mL
C[C@@H](O)[C@H]1C(=O)N2C(C(=O)O)=C(S[C@@H]3CN[C@H](C(=O)N(C)C)C3)[C@H](C)[C@H]12 [Meropenom, meropenem] | 0.25 µg/mL | 1 µg/mL | 4 µg/mL | 6 µg/mL | >64 µg/mL | >64 µg/mL | 0.063 µg/mL | 0.063 µg/mL | 0.063 µg/mL | 0.5 µg/mL | 0.5 µg/mL | 0.5 µg/mL |  | Minimum inhibitory concentration ([2]; antibiotic alone): 4 µg/mL; Minimum inhibitory concentration ([3]; antibiotic alone): >64 µg/mL; Minimum inhibitory concentration ([4]; antibiotic alone): 0.125 µg/mL; Minimum inhibitory concentration ([5]; antibiotic alone): 1 µg/mL
CCN1CCN(C(=O)N[C@@H](C(=O)N[C@@H]2C(=O)N3[C@@H]2SC(C)(C)[C@@H]3C(=O)O)c2ccccc2)C(=O)C1=O [Piperacilin, piperacillin] | 0.25 µg/mL | 1 µg/mL | 2 µg/mL | 6 µg/mL | >64 µg/mL | >64 µg/mL | 0.25 µg/mL | 0.5 µg/mL | 0.5 µg/mL | 4 µg/mL | 4 µg/mL | 4 µg/mL |  | Minimum inhibitory concentration ([2]; antibiotic alone): 2 µg/mL; Minimum inhibitory concentration ([3]; antibiotic alone): >64 µg/mL; Minimum inhibitory concentration ([4]; antibiotic alone): 0.5 µg/mL; Minimum inhibitory concentration ([5]; antibiotic alone): 4 µg/mL
CN[C@H](CC(C)C)C(=O)N[C@H]1C(=O)N[C@@H](CC(N)=O)C(=O)N[C@H]2C(=O)N[C@H]3C(=O)N[C@H](C(=O)N[C@H](C(=O)O)c4cc(O)cc(O)c4-c4cc3ccc4O)[C@H](O)c3ccc(c(Cl)c3)Oc3cc2cc(c3O[C@@H]2O[C@H](CO)[C@@H](O)[C@H](O)[C@H]2O[C@H]2C[C@](C)(N)[C@H](O)[C@H](C)O2)Oc2ccc(cc2Cl)[C@H]1O [Vancomycin] | 1 µg/mL | 2 µg/mL | 2 µg/mL | 2 µg/mL | >64 µg/mL | >64 µg/mL | 0.125 µg/mL | 0.125 µg/mL | 0.125 µg/mL | >64 µg/mL | >64 µg/mL | >64 µg/mL | −198 | MIC ([2]; ATCC29212, read-out: Minimum inhibitory concentration): 2 µg/mL; MIC ([3]; A2373, read-out: Minimum inhibitory concentration): > 64 µg/mL; MIC ([4]; ATCC49619, read-out: Minimum inhibitory concentration): 0.125 µg/mL; MIC ([5]; PAO1, read-out: Minimum inhibitory concentration): > 64 µg/mL
Colistin |  |  |  |  |  |  |  |  |  |  |  |  | −102 | 
Poly-L-lysine |  |  |  |  |  |  |  |  |  |  |  |  | −377 | 
Polymyxin B |  |  |  |  |  |  |  |  |  |  |  |  | −231 | 
Spiramycin |  |  |  |  |  |  |  |  |  |  |  |  | −235 | 
gentamicin | 1 µg/mL | 4 µg/mL | 32 µg/mL | >64 µg/mL | >64 µg/mL | >64 µg/mL | 8 µg/mL | 16 µg/mL | 32 µg/mL | 2 µg/mL | 4 µg/mL | 2 µg/mL |  | Minimum inhibitory concentration ([2]; antibiotic alone): 32 µg/mL; Minimum inhibitory concentration ([3]; antibiotic alone): >64 µg/mL; Minimum inhibitory concentration ([4]; antibiotic alone): 32 µg/mL; Minimum inhibitory concentration ([5]; antibiotic alone): 2 µg/mL
